Measurements as given in ChEMBL document CHEMBL1201862, “PubChem BioAssay data set” (2004).
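Cultured in 96-well plates, cells were exposed to test compound for 48 hours across five concentrations. GI50 = concentration required for 50% inhibition of growth.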 Calls of active or inactive are those of the source. Rule as the data show it: active = GI50 up to about 1.1 µM and inactive = higher.

What was measured:
Experiment in all cases: inhibition of tumour cell growth, NCI panel, 48 h
786-0 = tested on: 786-0
ACHN = tested on: ACHN
CCRF-CEM = tested on: CCRF-CEM
DU-145 = tested on: DU-145
EKVX = tested on: EKVX
HCT-116 = tested on: HCT-116
HCT-15 = tested on: HCT-15
IGROV-1 = tested on: IGROV-1
KM12 = tested on: KM12
NCI-H226 = tested on: NCI-H226
NCI-H460 = tested on: NCI-H460
OVCAR-3 = tested on: OVCAR-3
OVCAR-5 = tested on: OVCAR-5
OVCAR-8 = tested on: OVCAR-8
SF-268 = tested on: SF-268
SK-MEL-2 = tested on: SK-MEL-2
SNB-75 = tested on: SNB-75
U-251 = tested on: U-251
UO-31 = tested on: UO-31
SR = tested on: SR

Structure (SMILES)	GI50 (786-0)	GI50 (ACHN)	GI50 (CCRF-CEM)	GI50 (DU-145)	GI50 (EKVX)	GI50 (HCT-116)	GI50 (HCT-15) [µM]	GI50 (IGROV-1)	GI50 (KM12)	GI50 (NCI-H226)	GI50 (NCI-H460)	GI50 (OVCAR-3)	GI50 (OVCAR-5)	GI50 (OVCAR-8)	GI50 (SF-268)	GI50 (SK-MEL-2)	GI50 (SNB-75)	GI50 (U-251)	GI50 (UO-31)	GI50 (SR)
CC1C2(C)OC(=N)C(C#N)(C(C)O2)C1(C#N)C#N (stereo not drawn)	22 µM (inactive)	33.3 µM (inactive)	16 µM (inactive)	25.7 µM (inactive)	30.8 µM (inactive)	24.4 µM (inactive)	15.5	39.5 µM (inactive)	49.8 µM (inactive)	> 100 µM (inactive)	19.6 µM (inactive)	24.5 µM (inactive)	30.5 µM (inactive)	31 µM (inactive)	30.8 µM (inactive)	19.9 µM (inactive)	> 100 µM (inactive)	21.4 µM (inactive)	42.9 µM (inactive)	–
CN(C)CCCNC(=O)c1cc(NC(=O)CCCn2c3ccccc3c3ccccc32)cn1C	80.9 µM (inactive)	26.9 µM (inactive)	29.6 µM (inactive)	> 100 µM (inactive)	15.6 µM (inactive)	25.9 µM (inactive)	45.7	6.64 µM (inactive)	21.4 µM (inactive)	25.3 µM (inactive)	28.8 µM (inactive)	11.5 µM (inactive)	73.6 µM (inactive)	48.3 µM (inactive)	66.7 µM (inactive)	34.8 µM (inactive)	43 µM (inactive)	37.3 µM (inactive)	25.5 µM (inactive)	–
COC(=O)c1ccc2c(c1)S/C(=C/c1ccc3ccc4cccc5ccc1c3c45)S2	> 100 µM (inactive)	> 100 µM (inactive)	34.5 µM (inactive)	> 100 µM (inactive)	> 100 µM (inactive)	95.9 µM (inactive)	28.1	46 µM (inactive)	24.4 µM (inactive)	> 100 µM (inactive)	64.4 µM (inactive)	23.2 µM (inactive)	> 100 µM (inactive)	31.6 µM (inactive)	32.1 µM (inactive)	> 100 µM (inactive)	17.3 µM (inactive)	48.8 µM (inactive)	> 100 µM (inactive)	–
O=C1C[C@@H]2[C@@H](c3ccccc3)[C@@H]3C(=O)c4ccccc4NC(=O)[C@H]3[C@]2(O)c2ccccc2N1	> 100 µM (inactive)	> 100 µM (inactive)	> 100 µM (inactive)	–	> 100 µM (inactive)	> 100 µM (inactive)	> 100	> 100 µM (inactive)	> 100 µM (inactive)	> 100 µM (inactive)	> 100 µM (inactive)	> 100 µM (inactive)	> 100 µM (inactive)	> 100 µM (inactive)	> 100 µM (inactive)	> 100 µM (inactive)	> 100 µM (inactive)	> 100 µM (inactive)	> 100 µM (inactive)	> 100 µM (inactive)
NNC(=O)c1ccccc1NC(=O)/C(=C/c1ccccc1)NC(=O)c1ccccc1	> 100 µM (inactive)	> 100 µM (inactive)	43.6 µM (inactive)	> 100 µM (inactive)	> 100 µM (inactive)	88.1 µM (inactive)	46.7	68.1 µM (inactive)	27.8 µM (inactive)	> 100 µM (inactive)	80 µM (inactive)	> 100 µM (inactive)	> 100 µM (inactive)	> 100 µM (inactive)	> 100 µM (inactive)	> 100 µM (inactive)	70.1 µM (inactive)	58.6 µM (inactive)	65.3 µM (inactive)	–
CNC(=S)Nc1ccc(OC)c2ccccc12	> 10 µM (inactive)	> 10 µM (inactive)	> 10 µM (inactive)	> 10 µM (inactive)	–	> 10 µM (inactive)	> 10	> 10 µM (inactive)	> 10 µM (inactive)	–	–	2.88 µM (inactive)	> 10 µM (inactive)	> 10 µM (inactive)	> 10 µM (inactive)	–	4.43 µM (inactive)	> 10 µM (inactive)	–	> 10 µM (inactive)
CCOC(=O)CNc1nc(=O)c2c(=O)oc(Cl)cc2o1	10.2 µM (inactive)	13.5 µM (inactive)	5.82 µM (inactive)	29 µM (inactive)	16.1 µM (inactive)	12.1 µM (inactive)	10	10.1 µM (inactive)	22.1 µM (inactive)	> 100 µM (inactive)	16.6 µM (inactive)	12.9 µM (inactive)	18.5 µM (inactive)	11.2 µM (inactive)	14.7 µM (inactive)	17.2 µM (inactive)	11 µM (inactive)	24.8 µM (inactive)	12.8 µM (inactive)	–
O=C1CCCC/C1=C\c1ccc(Br)cc1	16.6 µM (inactive)	2.75 µM (inactive)	12.6 µM (inactive)	40 µM (inactive)	24.8 µM (inactive)	17.3 µM (inactive)	–	19.7 µM (inactive)	2.42 µM (inactive)	–	35.5 µM (inactive)	20.7 µM (inactive)	> 10 µM (inactive)	15.7 µM (inactive)	18.5 µM (inactive)	22.6 µM (inactive)	16 µM (inactive)	2.99 µM (inactive)	16.1 µM (inactive)	4.2 µM (inactive)
CCOC(=O)C/C(N)=C(\C#N)C(=O)OCC	> 100 µM (inactive)	> 100 µM (inactive)	> 100 µM (inactive)	–	> 100 µM (inactive)	> 100 µM (inactive)	> 100	> 100 µM (inactive)	> 100 µM (inactive)	> 100 µM (inactive)	> 100 µM (inactive)	> 100 µM (inactive)	> 100 µM (inactive)	> 100 µM (inactive)	> 100 µM (inactive)	> 100 µM (inactive)	> 100 µM (inactive)	> 100 µM (inactive)	> 100 µM (inactive)	> 100 µM (inactive)
CO[C@]12C[C@@H](CNC(=O)c3cc(Br)c[nH]3)O[C@H]1NC(=O)N2	> 100 µM (inactive)	> 100 µM (inactive)	> 100 µM (inactive)	> 100 µM (inactive)	> 100 µM (inactive)	> 100 µM (inactive)	> 100	> 100 µM (inactive)	> 100 µM (inactive)	> 100 µM (inactive)	> 100 µM (inactive)	> 100 µM (inactive)	> 100 µM (inactive)	> 100 µM (inactive)	> 100 µM (inactive)	> 100 µM (inactive)	> 100 µM (inactive)	> 100 µM (inactive)	> 100 µM (inactive)	–
CC(=O)O[C@H]1CCC2[C@@H]3CC[C@]4(C)CC(=O)C=C[C@]4(C)C3CC[C@@]21C (stereo partly drawn)	34.4 µM (inactive)	49 µM (inactive)	20.1 µM (inactive)	> 100 µM (inactive)	27.5 µM (inactive)	16.8 µM (inactive)	18.7	23.8 µM (inactive)	20.6 µM (inactive)	25.2 µM (inactive)	17.5 µM (inactive)	17.5 µM (inactive)	> 80.5 µM (inactive)	17.3 µM (inactive)	21.2 µM (inactive)	20.8 µM (inactive)	46 µM (inactive)	17.7 µM (inactive)	6.3 µM (inactive)	–
CCN(CC)c1c(C(C)(C)C)c(=O)n2ccsc2c1OC(C)=O	19.9 µM (inactive)	16.2 µM (inactive)	49 µM (inactive)	19.9 µM (inactive)	15.1 µM (inactive)	13.6 µM (inactive)	16.5	16.8 µM (inactive)	15.5 µM (inactive)	15.4 µM (inactive)	16.5 µM (inactive)	17.1 µM (inactive)	15.8 µM (inactive)	15 µM (inactive)	15.2 µM (inactive)	17.1 µM (inactive)	15 µM (inactive)	17 µM (inactive)	17.9 µM (inactive)	–
Cc1ccc(Nc2nc(N)nc3c2ncn3C2OC(CO)C(O)C2O)cc1 (stereo not drawn)	> 100 µM (inactive)	> 100 µM (inactive)	> 100 µM (inactive)	> 100 µM (inactive)	> 100 µM (inactive)	> 100 µM (inactive)	> 100	> 100 µM (inactive)	> 100 µM (inactive)	> 100 µM (inactive)	–	> 100 µM (inactive)	> 100 µM (inactive)	> 100 µM (inactive)	–	> 100 µM (inactive)	> 100 µM (inactive)	> 100 µM (inactive)	> 100 µM (inactive)	–
COC(=O)[C@H](Cc1c[nH]c2ccccc12)NC(=O)OCC1OC(n2cc(C)c(=O)[nH]c2=O)CC1N=[N+]=[N-] (stereo partly drawn)	> 100 µM (inactive)	> 100 µM (inactive)	93.3 µM (inactive)	> 100 µM (inactive)	> 100 µM (inactive)	> 100 µM (inactive)	> 100	> 100 µM (inactive)	> 100 µM (inactive)	> 100 µM (inactive)	49.4 µM (inactive)	> 100 µM (inactive)	> 100 µM (inactive)	> 100 µM (inactive)	> 100 µM (inactive)	> 100 µM (inactive)	84.5 µM (inactive)	> 100 µM (inactive)	> 100 µM (inactive)	–
C1=C2C3=[N+](CCCC3)CC2Cc2sccc21 (stereo not drawn)	> 100 µM (inactive)	> 100 µM (inactive)	> 100 µM (inactive)	> 100 µM (inactive)	42.7 µM (inactive)	> 100 µM (inactive)	> 100	> 100 µM (inactive)	45.6 µM (inactive)	> 100 µM (inactive)	52.7 µM (inactive)	64.4 µM (inactive)	> 100 µM (inactive)	> 100 µM (inactive)	> 100 µM (inactive)	> 100 µM (inactive)	> 100 µM (inactive)	29.4 µM (inactive)	> 100 µM (inactive)	–
